Measured values taken from PubChem BioAssay AID1963451 (Molecular Pharmacology Branch, DTP, NCI, 2024).

System: 521955-158-R6-J3-PDC complex spheroid growth, % test/control
Experiment: Anticancer human tumor 521955-158-R6-J3-PDC patient-derived pancreatic carcinoma cell line growth inhibition [Asc]
Conditions: for IC50: curve of first compound; for viability, T/C: stronger effect = lower value
In short: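 Stromal components (HUVEC and hMSC) are co-assembled with the cancer cells into multicellular spheroids. Drugs are then added singly or paired, at concentrations falling by half-log increments from a clinically achievable maximum, capped at 10 microM without known Cmax.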

[1] = second compound 0.00316 µM, first compound 0.0316 µM
[2] = second compound 0.00316 µM, first compound 0.1 µM
[3] = second compound 0.01 µM, first compound 0.0316 µM
[4] = second compound 0.01 µM, first compound 0.1 µM
[5] = second compound 0.0316 µM, first compound 0.0316 µM
[6] = second compound 0.0316 µM, first compound 0.1 µM
[7] = second compound 0.1 µM, first compound 0.0316 µM
[8] = second compound 0.1 µM, first compound 0.1 µM
[9] = second compound 0.316 µM, first compound 0.0316 µM
[10] = second compound 0.316 µM, first compound 0.1 µM
[11] = second compound 1 µM, first compound 0.0316 µM
[12] = second compound 1 µM, first compound 0.1 µM
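Note: spheroids exposed to compounds for 7 days.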
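Throughout, for viability, T/C: 100% = DMSO vehicle control wells.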

With `Cn1ncnc1[C@H]1c2n[nH]c(=O)c3cc(F)cc(c23)N[C@@H]1c1ccc(F)cc1` + CNC(C)C(=O)NC1CN(S(=O)(=O)c2cccc(S(=O)(=O)N3CCC4CCC(C(=O)NC(c5ccccc5)c5ccccc5)N4C(=O)C(NC(=O)C(C)NC)C3)c2)CCC2CCC(C(=O)NC(c3ccccc3)c3ccccc3)N2C1=O the IC50 (second compound 0.00316 µM) was > 0.1 µM, the IC50 (second compound 0.01 µM) was > 0.1 µM and the IC50 (second compound 0.0316 µM) was > 0.1 µM. The IC50 (second compound 0.1 µM) was > 0.1 µM, the IC50 (second compound 0.316 µM) was > 0.1 µM and the IC50 (second compound 1 µM) was > 0.1 µM. It also gave a viability, T/C (second compound 0.00316 µM, first compound 0.000316 µM) of 188%, a viability, T/C (second compound 0.00316 µM, first compound 0.001 µM) of 151% and a viability, T/C (second compound 0.00316 µM, first compound 0.00316 µM) of 151%. The viability, T/C (second compound 0.00316 µM, first compound 0.01 µM) was 159%, the viability, T/C [1] was 163% and the viability, T/C [2] was 140%. The viability, T/C (second compound 0.01 µM, first compound 0.000316 µM) was 154%, the viability, T/C (second compound 0.01 µM, first compound 0.001 µM) was 171% and the viability, T/C (second compound 0.01 µM, first compound 0.00316 µM) was 142%. It also gave a viability, T/C (second compound 0.01 µM, first compound 0.01 µM) of 146%, a viability, T/C [3] of 153% and a viability, T/C [4] of 161%. It also gave a viability, T/C (second compound 0.0316 µM, first compound 0.000316 µM) of 96.4%, a viability, T/C (second compound 0.0316 µM, first compound 0.001 µM) of 79.9% and a viability, T/C (second compound 0.0316 µM, first compound 0.00316 µM) of 93.6%. It also gave a viability, T/C (second compound 0.0316 µM, first compound 0.01 µM) of 74.6%, a viability, T/C [5] of 76.9% and a viability, T/C [6] of 92.1%. For the same compound, the viability, T/C (second compound 0.1 µM, first compound 0.000316 µM) was 93.2%, the viability, T/C (second compound 0.1 µM, first compound 0.001 µM) was 79.2% and the viability, T/C (second compound 0.1 µM, first compound 0.00316 µM) was 85.6%. For the same compound, the viability, T/C (second compound 0.1 µM, first compound 0.01 µM) was 83%, the viability, T/C [7] was 87.4% and the viability, T/C [8] was 78.2%. It also gave a viability, T/C (second compound 0.316 µM, first compound 0.000316 µM) of 84.8%, a viability, T/C (second compound 0.316 µM, first compound 0.001 µM) of 72.6% and a viability, T/C (second compound 0.316 µM, first compound 0.00316 µM) of 83.3%. For the same compound, the viability, T/C (second compound 0.316 µM, first compound 0.01 µM) was 87.1%, the viability, T/C [9] was 89.3% and the viability, T/C [10] was 84.1%. For the same compound, the viability, T/C (second compound 1 µM, first compound 0.000316 µM) was 73.3%, the viability, T/C (second compound 1 µM, first compound 0.001 µM) was 74.9% and the viability, T/C (second compound 1 µM, first compound 0.00316 µM) was 83.9%. For the same compound, the viability, T/C (second compound 1 µM, first compound 0.01 µM) was 74.7%, the viability, T/C [11] was 87.8% and the viability, T/C [12] was 83.2%.

In the case of `O=C(c1cc(Cc2n[nH]c(=O)c3ccccc23)ccc1F)N1CCN(C(=O)C2CC2)CC1` + CNC(C)C(=O)NC1CN(S(=O)(=O)c2cccc(S(=O)(=O)N3CCC4CCC(C(=O)NC(c5ccccc5)c5ccccc5)N4C(=O)C(NC(=O)C(C)NC)C3)c2)CCC2CCC(C(=O)NC(c3ccccc3)c3ccccc3)N2C1=O, the IC50 (second compound 0.00316 µM) is reported as > 10 µM, the IC50 (second compound 0.01 µM) is reported as > 10 µM and the IC50 (second compound 0.0316 µM) is reported as > 10 µM. The IC50 (second compound 0.1 µM) was > 10 µM, the IC50 (second compound 0.316 µM) was > 10 µM and the IC50 (second compound 1 µM) was > 10 µM. For the same compound, the viability, T/C [1] was 159%, the viability, T/C [2] was 159% and the viability, T/C (second compound 0.00316 µM, first compound 0.316 µM) was 153%. For the same compound, the viability, T/C (second compound 0.00316 µM, first compound 1 µM) was 151%, the viability, T/C (second compound 0.00316 µM, first compound 3.16 µM) was 155% and the viability, T/C (second compound 0.00316 µM, first compound 10 µM) was 160%. It also gave a viability, T/C [3] of 166%, a viability, T/C [4] of 133% and a viability, T/C (second compound 0.01 µM, first compound 0.316 µM) of 148%. It also gave a viability, T/C (second compound 0.01 µM, first compound 1 µM) of 153%, a viability, T/C (second compound 0.01 µM, first compound 3.16 µM) of 138% and a viability, T/C (second compound 0.01 µM, first compound 10 µM) of 119%. It also gave a viability, T/C [5] of 97.5%, a viability, T/C [6] of 87.8% and a viability, T/C (second compound 0.0316 µM, first compound 0.316 µM) of 87.7%. For the same compound, the viability, T/C (second compound 0.0316 µM, first compound 1 µM) was 74.3%, the viability, T/C (second compound 0.0316 µM, first compound 3.16 µM) was 132% and the viability, T/C (second compound 0.0316 µM, first compound 10 µM) was 84.9%. The viability, T/C [7] was 92%, the viability, T/C [8] was 81.5% and the viability, T/C (second compound 0.1 µM, first compound 0.316 µM) was 87.4%. The viability, T/C (second compound 0.1 µM, first compound 1 µM) was 85.8%, the viability, T/C (second compound 0.1 µM, first compound 3.16 µM) was 138% and the viability, T/C (second compound 0.1 µM, first compound 10 µM) was 82.3%. The viability, T/C [9] was 92.5%, the viability, T/C [10] was 81.5% and the viability, T/C (second compound 0.316 µM, first compound 0.316 µM) was 74.3%. It also gave a viability, T/C (second compound 0.316 µM, first compound 1 µM) of 72.7%, a viability, T/C (second compound 0.316 µM, first compound 3.16 µM) of 138% and a viability, T/C (second compound 0.316 µM, first compound 10 µM) of 81.7%. The viability, T/C [11] was 93.3%, the viability, T/C [12] was 85.4% and the viability, T/C (second compound 1 µM, first compound 0.316 µM) was 95.1%. It also gave a viability, T/C (second compound 1 µM, first compound 1 µM) of 89.3%, a viability, T/C (second compound 1 µM, first compound 3.16 µM) of 138% and a viability, T/C (second compound 1 µM, first compound 10 µM) of 80.8%.
